Data from patent publication US4175081A, “5-Substituted thiadiazole ureas” (priority 1977, dated 1979).

Tests used:
Crabgrass (CG) [1] = test: Pre-emergence herbicide test; assay type: in vivo, Digitaria sanquinalis; settings: Digitaria sanguinalis, pre-emergence, 336 h, two weeks after treatment; for pest or weed control: 2 lb/acre; for pest or weed control at 4483.4 g/ha: 4 lb/acre
Protocol: (§1) Crabgrass (CG)--Digitaria sanquinalis
(§2) All crop and weed species were planted individually in 3' plastic pots containing potting soil. Four seeds each of corn, cotton, and snapbeans were seeded to a depth equal to the diameter of the seed. All other species were surface seeded and sprinkled with screened soil in an amount sufficient to cover the seed. Immediately after planting, all pots were watered by sub-irrigation in greenhouse trays. Pots for the pre-emergence phase were seeded one day before treatment.
(§3) Spray hood constants required to deliver the above volume are as follows:
(§4) Formulations for spray applications were prepared in 50 ml volumes with the following three components: […]
(§5) Spray applications were made in a hood containing a removable belt and fixed spray nozzle. For passage through the spray hood, one pot of each specie (pre-emergence phase) was placed on the rear half of the flat. Treatments were removed to the greenhouse after spraying. Watering during the observation period was done only by sub-irrigation.
(§6) Two weeks after treatment, pre- and post-emergence injury or control was visually rated, and the results were as shown in the following tables. Pre-emergence data are provided in TABLE III and post-emergence data are provided in TABLE IV, for compounds having the formula illustrated in TABLE I. Correspondingly, pre-emergence and post-emergence data, respectively, are set forth in TABLES V AND VI, for compounds having the formula illustrated in TABLE II.

Johnson grass (JG) [2] = test: Pre-emergence herbicide test; assay type: in vivo, Sorgum helepense; settings: Sorghum halepense, 336 h, two weeks after treatment; for pest or weed control at 2241.7 g/ha: 2 lb/acre; for pest or weed control at 4483.4 g/ha: 4 lb/acre
Protocol: (§7) Johnson grass (JG)--Sorgum helepense
as §2
(§8) Compounds were tested at rates of application equivalent to 8 lbs. of actual compound per acre in a spray volume of 38 gallons per acre. Spray hood constants required to deliver the above volume are as follows:
(§9) Formulations for spray applications were prepared in 50 ml volumes with the following three components:
(§10) Formulations for the 4 lbs/acre rate were prepared by adjusting the amount of active ingredient accordingly.
as §5, §6

Barnyard grass (BG) [3] = test: Pre-emergence herbicide test; assay type: in vivo; settings: Echinochloa crus-galli, 336 h, two weeks after treatment; for pest or weed control at 2241.7 g/ha: 2 lb/acre; for pest or weed control at 4483.4 g/ha: 4 lb/acre
Protocol: (§11) Barnyard grass (BG)--Echinochloa crus-galli
as §2, §8, §9, §10, §5, §6

Turnip (TP) [4] = test: Pre-emergence herbicide test; assay type: in vivo, Brassica sp.; settings: Brassica rapa, pre-emergence, 336 h, two weeks after treatment; for pest or weed control at 2241.7 g/ha: 2 lb/acre; for pest or weed control at 4483.4 g/ha: 4 lb/acre
Protocol: (§12) Turnip (TP)--Brassica sp.
as §2, §3, §4, §5, §6

Cotton (CT) [5] = test: Pre-emergence herbicide test; assay type: in vivo, Gossypium hirsutum var. DPL smooth leaf; settings: Gossypium hirsutum, 336 h, two weeks after treatment; for pest or weed control at 2241.7 g/ha: 2 lb/acre; for pest or weed control at 4483.4 g/ha: 4 lb/acre
Protocol: (§13) Cotton (CT)--Gossypium hirsutum var. DPL smooth leaf
as §2, §8, §9, §10, §5, §6

Corn (CN) [6] = test: Pre-emergence herbicide test; assay type: in vivo; settings: Zea mays, 336 h, two weeks after treatment; for pest or weed control at 2241.7 g/ha: 2 lb/acre; for pest or weed control at 4483.4 g/ha: 4 lb/acre
Protocol: as §2, §8, §9, §10, §5, §6

Bean (BN) [7] = test: Pre-emergence herbicide test; assay type: in vivo, Phaseolus vulgaris var. Black Valentine; settings: Phaseolus vulgaris, 336 h, two weeks after treatment; for pest or weed control at 2241.7 g/ha: 2 lb/acre; for pest or weed control at 4483.4 g/ha: 4 lb/acre
Protocol: (§14) Bean (BN)--Phaseolus vulgaris var. Black Valentine
as §2, §8, §9, §10, §5, §6

Crabgrass (CG) [8] = test: Post-emergence herbicide test; assay type: in vivo, Digitaria sanquinalis; settings: Digitaria sanguinalis, post-emergence, 336 h, two weeks after treatment; for pest or weed control: 2 lb/acre; for pest or weed control at 4483.4 g/ha: 4 lb/acre
Protocol: as §1, §2
(§15) Planting dates for the post-emergence phase were varied so that all seedlings would reach the desired stage of development simultaneously. The proper stage of seedling development for treatment in the post-emergence phase is as follows:
as §3, §4, §5, §6

Johnson grass (JG) [9] = test: Post-emergence herbicide test; assay type: in vivo, Sorgum helepense; settings: Sorghum halepense, 336 h, two weeks after treatment; for pest or weed control at 4483.4 g/ha: 4 lb/acre
Protocol: as §7, §2, §15, §8, §9, §10, §5, §6

Barnyard grass (BG) [10] = test: Post-emergence herbicide test; assay type: in vivo; settings: Echinochloa crus-galli, 336 h, two weeks after treatment; for pest or weed control at 4483.4 g/ha: 4 lb/acre
Protocol: as §11, §2, §15, §8, §9, §10, §5, §6

Turnip (TP) [11] = test: Post-emergence herbicide test; assay type: in vivo, Brassica sp.; settings: Brassica rapa, post-emergence, 336 h, two weeks after treatment; for pest or weed control at 2241.7 g/ha: 2 lb/acre; for pest or weed control at 4483.4 g/ha: 4 lb/acre
Protocol: as §12, §2, §15
Pigweed and turnips: 1 or 2 true leaves above visible cotyledons.
as §3, §4, §5, §6

Cotton (CT) [12] = test: Post-emergence herbicide test; assay type: in vivo, Gossypium hirsutum var. DPL smooth leaf; settings: Gossypium hirsutum, post-emergence, 336 h, two weeks after treatment; for pest or weed control at 2241.7 g/ha: 2 lb/acre; for pest or weed control at 4483.4 g/ha: 4 lb/acre
Protocol: as §13, §2, §15
Cotton: first true leaf 1' in length; expanded cotyledons.
as §3, §9, §10, §5, §6

Corn (CN) [13] = test: Post-emergence herbicide test; assay type: in vivo; settings: Zea mays, 336 h, two weeks after treatment; for pest or weed control: 2 lb/acre; for pest or weed control at 4483.4 g/ha: 4 lb/acre
Protocol: as §2, §15, §8, §9, §10, §5, §6

Bean (BN) [14] = test: Post-emergence herbicide test; assay type: in vivo, Phaseolus vulgaris var. Black Valentine; settings: Phaseolus vulgaris, post-emergence, 336 h, two weeks after treatment; for pest or weed control at 2241.7 g/ha: 2 lb/acre; for pest or weed control at 4483.4 g/ha: 4 lb/acre
Protocol: as §14, §2, §15
Beans: primary leaves expanded, growing point at primary leaf nodes.
as §3, §9, §10, §5, §6

Molecule CCCSc1nnc(NC(=O)NC)s1 [Example 41, 1-Methyl-3-[5-n-Propylthio-2-(1,3,4-Thiadiazolyl)]Urea] has a pest or weed control (Crabgrass (CG) [1]) of 90%, a pest or weed control at 2241.7 g/ha (Johnson grass (JG) [2]) of 70% and a pest or weed control at 2241.7 g/ha (Barnyard grass (BG) [3]) of 50%. The pest or weed control at 2241.7 g/ha (Turnip (TP) [4]) was 60%, the pest or weed control at 2241.7 g/ha (Cotton (CT) [5]) was 50% and the pest or weed control at 2241.7 g/ha (Corn (CN) [6]) was 10%. It also gave a pest or weed control at 2241.7 g/ha (Bean (BN) [7]) of 30%, a pest or weed control (Crabgrass (CG) [8]) of 100% and a pest or weed control (Johnson grass (JG) [9]; 2 lb/acre) of 90%. The pest or weed control at 2241.7 g/ha (Barnyard grass (BG) [10]; 2 lb/acre) was 90%, the pest or weed control at 2241.7 g/ha (Turnip (TP) [11]) was 70% and the pest or weed control at 2241.7 g/ha (Cotton (CT) [12]) was 100%. The pest or weed control (Corn (CN) [13]) was 100% and the pest or weed control at 2241.7 g/ha (Bean (BN) [14]) was 70%.
Work on CCCS(=O)(=O)c1nnc(NC(=O)NC)s1 [Example 62] yielded a pest or weed control (Crabgrass (CG) [1]) of 90%, a pest or weed control at 4483.4 g/ha (Crabgrass (CG) [1]) of 90% and a pest or weed control at 2241.7 g/ha (Johnson grass (JG) [2]) of 40%. The pest or weed control at 4483.4 g/ha (Johnson grass (JG) [2]) was 40%, the pest or weed control at 2241.7 g/ha (Barnyard grass (BG) [3]) was 60% and the pest or weed control at 4483.4 g/ha (Barnyard grass (BG) [3]) was 60%. It also gave a pest or weed control at 2241.7 g/ha (Turnip (TP) [4]) of 80%, a pest or weed control at 4483.4 g/ha (Turnip (TP) [4]) of 40% and a pest or weed control at 2241.7 g/ha (Cotton (CT) [5]) of 100%. It also gave a pest or weed control at 4483.4 g/ha (Cotton (CT) [5]) of 100%, a pest or weed control at 2241.7 g/ha (Corn (CN) [6]) of 0% and a pest or weed control at 4483.4 g/ha (Corn (CN) [6]) of 0%. It also gave a pest or weed control at 2241.7 g/ha (Bean (BN) [7]) of 60%, a pest or weed control at 4483.4 g/ha (Bean (BN) [7]) of 50% and a pest or weed control (Crabgrass (CG) [8]) of 100%. For the same molecule, the pest or weed control at 4483.4 g/ha (Crabgrass (CG) [8]) was 100%, the pest or weed control at 4483.4 g/ha (Johnson grass (JG) [9]) was 100% and the pest or weed control at 4483.4 g/ha (Barnyard grass (BG) [10]) was 80%. It also gave a pest or weed control at 2241.7 g/ha (Turnip (TP) [11]) of 100%, a pest or weed control at 4483.4 g/ha (Turnip (TP) [11]) of 100% and a pest or weed control at 2241.7 g/ha (Cotton (CT) [12]) of 90%. For the same molecule, the pest or weed control at 4483.4 g/ha (Cotton (CT) [12]) was 100%, the pest or weed control (Corn (CN) [13]) was 100% and the pest or weed control at 4483.4 g/ha (Corn (CN) [13]) was 50%. It also gave a pest or weed control at 2241.7 g/ha (Bean (BN) [14]) of 100% and a pest or weed control at 4483.4 g/ha (Bean (BN) [14]) of 100%.
Work on CNC(=O)Nc1nnc(-c2cccc(C(F)(F)F)c2)s1 [Example 73] yielded a pest or weed control at 4483.4 g/ha (Crabgrass (CG) [1]) of 0%, a pest or weed control at 4483.4 g/ha (Johnson grass (JG) [2]) of 0% and a pest or weed control at 4483.4 g/ha (Barnyard grass (BG) [3]) of 0%. It also gave a pest or weed control at 4483.4 g/ha (Turnip (TP) [4]) of 60%, a pest or weed control at 4483.4 g/ha (Cotton (CT) [5]) of 100% and a pest or weed control at 4483.4 g/ha (Corn (CN) [6]) of 50%. The pest or weed control at 4483.4 g/ha (Bean (BN) [7]) was 80%, the pest or weed control at 4483.4 g/ha (Crabgrass (CG) [8]) was 30% and the pest or weed control at 4483.4 g/ha (Johnson grass (JG) [9]) was 50%. For the same molecule, the pest or weed control at 4483.4 g/ha (Barnyard grass (BG) [10]) was 40%, the pest or weed control at 4483.4 g/ha (Turnip (TP) [11]) was 60% and the pest or weed control at 4483.4 g/ha (Cotton (CT) [12]) was 50%. It also gave a pest or weed control at 4483.4 g/ha (Corn (CN) [13]) of 30% and a pest or weed control at 4483.4 g/ha (Bean (BN) [14]) of 40%.
Molecule CNC(=O)Nc1nnc(-c2ccccc2Cl)s1 [Example 74] has a pest or weed control at 8966.8 g/ha (Crabgrass (CG) [1]; 8 lb/acre) of 20%, a pest or weed control at 8966.8 g/ha (Johnson grass (JG) [2]; 8 lb/acre) of 0% and a pest or weed control at 8966.8 g/ha (Barnyard grass (BG) [3]; 8 lb/acre) of 30%. It also gave a pest or weed control at 8966.8 g/ha (Turnip (TP) [4]; 8 lb/acre) of 50%, a pest or weed control at 8966.8 g/ha (Cotton (CT) [5]; 8 lb/acre) of 100% and a pest or weed control at 8966.8 g/ha (Corn (CN) [6]; 8 lb/acre) of 0%. The pest or weed control at 8966.8 g/ha (Bean (BN) [7]; 8 lb/acre) was 100%, the pest or weed control at 8966.8 g/ha (Crabgrass (CG) [8]; 8 lb/acre) was 70% and the pest or weed control at 8966.8 g/ha (Johnson grass (JG) [9]; 8 lb/acre) was 40%. The pest or weed control at 8966.8 g/ha (Barnyard grass (BG) [10]; 8 lb/acre) was 40%, the pest or weed control at 8966.8 g/ha (Turnip (TP) [11]; 8 lb/acre) was 80% and the pest or weed control at 8966.8 g/ha (Cotton (CT) [12]; 8 lb/acre) was 50%. It also gave a pest or weed control at 8966.8 g/ha (Corn (CN) [13]; 8 lb/acre) of 40% and a pest or weed control at 8966.8 g/ha (Bean (BN) [14]; 8 lb/acre) of 80%.
